Patent US20250275910A1, “Cosmetic application of viniferine” (Tomcat International Limited, priority 2021, published 2025)

Key:
[1] = test system: human epidermal melanocytes (HEM); assay: Melanin content test on human epidermal melanocytes exposed to blue light; format: cell-based; details: total 120 J/cm^2
Procedure: In the following experimental part, the preventive effect of ε-viniferine (trans-ε-viniferine) at different concentrations, on the damage caused by blue light at two wavelengths (412 nm, characteristic of solar blue light and 450 nm, characteristic of blue light from screens) was evaluated by means of a test for determining the melanin content of cells treated with a composition of the invention. In order to determine the maximum concentrations to be tested, the toxicity of different concentrations of the compositions tested was first evaluated via the MTT test, a live cell counting test involving the MTT tetrazolium salt as a reagent and well known to the professional.
The tests were carried out on human epidermal melanocytes (HEM), which are cells that produce melanin and are therefore responsible for skin pigmentation. […]
The HEM cells were cultured at 37° C., in a 5% CO2 atmosphere and treated with a determined concentration of the composition C1 or the composition C2. […]
(§1) The coloring intensity determined by the optical density measured at 405 nm is directly correlated to the melanin content.
(§2) The melanin content is calculated by relating the absorbance value to that of the negative control.
(§3) The percentage variation in melanin content compared to the blank test or the negative control is calculated according to the following equation: […]

[2] = test system: human skin explants; assay: Melanin content test on human skin explants exposed to blue light; format: cell-based; details: human skin explants treated with C11 or C12, blue light at 412 nm or 450 nm, total 120 J/cm^2
Procedure: The tests were carried out on human skin explants obtained from plastic surgery. The biopsies are divided into explants of 8 mm diameter and kept for survival in complete medium. at 37° C. and in an atmosphere of 5% CO2.
The skin explants are exposed to blue light, at 412 nm or 450 nm or kept in the dark (control) for 5 hours per day, for 3 days, representing a total irradiation of 120 J/cm^2. Before each exposure, the explants are treated overnight with the compositions C11 or C12.
24 hours after the last irradiation, the explants are collected and incubated in a 1 M NaOH solution at 80° C. for 3 hours, allowing the melanin to solubilize. […]
as §1, §2, §3

Oc1ccc(/C=C/c2cc(O)cc3c2[C@@H](c2cc(O)cc(O)c2)[C@H](c2ccc(O)cc2)O3)cc1 (relative stereo) [ε-viniferine, trans-ε-viniferine]
production of melanin (optical density at 405 nm) ([1]; HEM cells treated 24 h before exposure to blue light at 412 nm or 450 nm, 5 h per day for 3 days, versus untreated irradiated cells (NT)): significantly reduce the production of melanin
melanin content relative to culture not exposed to blue light ([1]; HEM cells, blue light at 450 nm): lower the melanin content to the content of a culture of melanocytes not exposed to blue light
melanin content relative to explant not exposed to blue light [2]: lower the melanin content to the content of an explant not exposed to blue light
